Laboratory results published in patent US4451467A, “4(3H)-Quinazolinone derivatives, process for production thereof, and pharmaceutical compositions comprising said compounds” (Ishikawa; Masayuki, priority 1981, dated 1984).

Assays:
Type in all cases: in vivo
[1] = tested on: normotensive dogs anesthetized with pentobarbital sodium; assay: Hypotensive effect on anesthetized dogs (intravenous); conditions: i.v.; for hypotensive effect in anesthetized dogs (in words): same conditions as Table II, dose under 100 μg/kg; for Hypotensive Effect Δ(mmHg): anesthetized dogs, mean value
Experimental: Groups of three to four normotensive dogs anesthetized with pentobarbital sodium were used in the experiments. The test compounds were dissolved in a minimum amount of ethanol, and the solutions were administered intravenously in the vein cannulated with a polyethylene tube. The mean blood pressures in the carotid artery were recorded using a pressure transducer and a recorder. The hypotensive effect in Table II are a mean value obtained from at least three to four experiments.

rats = assay: Test for acute toxicity (oral, rats); conditions: for number of dead rats [drawing 15]: 8 days
From the text: (§1) A suspension of a test compound in 0.5% CMC aqueous solution containing Tween 80 was orally administered to rats, and during 8 days the number of dead rats was counted.

[2] = Test for acute toxicity (oral, rats); conditions: rat, in vivo, rats, 8 days
From the text: as §1

[3] = tested on: male spontaneously hypertensive rats (Wister Kyoto origin); assay: Hypotensive effect on conscious spontaneously hypertensive rats (oral); conditions: Rattus norvegicus, tail-cuff method, read-out: pD30 (dose which decreases systolic blood pressure by 30 mmHg)
Experimental: (b) Hypotensive effect on conscious spontaneously hypertensive rate
The test compounds were orally administered to groups of four to five of male spontaneously hypertensive rats (Wister Kyoto origin) weighing about 300 g and aged 15 to 20 weeks. The systolic blood pressure was measured by the tail-cuff method using a plethysmograph.

For `CCOC(=O)c1c(C)cc2c(c1C)c(=O)n(-c1ccccc1Cl)c(=O)n2CCN(CC)CC` [3-(2-chlorophenyl)-6-ethoxycarbonyl-5,7-dimethyl-1-(2-(N,N-diethylamino)ethyl]-2,4(1H,3H)-quinazolinedione, reference compound], which “hypotensive effect in anesthetized dogs (in words)” value (“hypotensive effect … (in words)” below) [1] is on record?
The value was “did not exhibit a hypotensive effect”.

With `CCOC(=O)c1c(C)cc2nc(COC(=O)NC(C)(C)C)n(-c3ccccc3Cl)c(=O)c2c1C` [Compound 14] as the compound, how does the “Hypotensive Effect Δ(mmHg)” value ([1]; dose 1.0 μg/kg) read?
Its value is 8 mmHg.

What about the “Hypotensive Effect Δ(mmHg)” value ([1]; dose 3.0 μg/kg) of the same compound?
The value was 10 mmHg.

And the “Hypotensive Effect Δ(mmHg)” value ([1]; dose 10 μg/kg)?
Its value is 25 mmHg.

With `CCCNC(=O)OCc1nc2cc(C)c(C(=O)OCC)c(C)c2c(=O)n1-c1ccccc1Cl` [Compound 10] as the compound, how does the “Hypotensive Effect Δ(mmHg)” value ([1]; dose 1.0 μg/kg) read?
Its value is 10 mmHg.

What about the “Hypotensive Effect Δ(mmHg)” value ([1]; dose 3.0 μg/kg) of the same compound?
The value was 25 mmHg.

For `CCOC(=O)c1c(C)cc2nc(COC(=O)NC)n(-c3ccccc3Cl)c(=O)c2c1C` [Compound 1, 3-(2-chlorophenyl)-6-ethoxycarbonyl-5,7-dimethyl-2-(N-methylcarbamoyloxymethyl)-4(3H)-quinazolinone], which “toxicity (in words)” value (rats; acute, rats) is on record?
Its value is “very low”.

What about the “number of dead rats [drawing 15]” value (rats; dose 1200 mg/Kg) of the same compound?
Its value is 2/6.

And the “number of dead rats [drawing 15]” value (rats; dose 1715 mg/Kg)?
The value was 3/6.

And the “number of dead rats [drawing 15]” value (rats; dose 2450 mg/Kg)?
The value was 3/6.

What about the “number of dead rats [drawing 15]” value (rats; dose 3500 mg/Kg) of the same compound?
The value was 3/6.

And the “number of dead rats [drawing 15]” value (rats; dose 5000 mg/Kg)?
Its value is 5/6.

And the LD50 at 192 h [2]?
The LD50 at 192 h was 2500 mg/kg.

And the ED (30 mmHg) [3]?
The ED (30 mmHg) was 2.8 mg/kg.

What about the “Hypotensive Effect Δ(mmHg)” value ([1]; dose 1.0 μg/kg) of the same compound?
Its value is 3 mmHg.

What about the “Hypotensive Effect Δ(mmHg)” value ([1]; dose 3.0 μg/kg) of the same compound?
The value was 6 mmHg.

And the “Hypotensive Effect Δ(mmHg)” value ([1]; dose 10 μg/kg)?
The value was 22 mmHg.

What about the “Hypotensive Effect Δ(mmHg)” value ([1]; dose 30 μg/kg) of the same compound?
The value was 43 mmHg.

And the “Hypotensive Effect Δ(mmHg)” value ([1]; dose 100 μg/kg)?
The value was 51 mmHg.

Which results are given for `CCOC(=O)c1c(C)cc2nc(COC(=O)NC(C)C)n(-c3ccccc3F)c(=O)c2c1C` [Compound 18]?
Hypotensive Effect Δ(mmHg) ([1]; dose 1.0 μg/kg): 5 mmHg; Hypotensive Effect Δ(mmHg) ([1]; dose 3.0 μg/kg): 10 mmHg; Hypotensive Effect Δ(mmHg) ([1]; dose 10 μg/kg): 28 mmHg

What does the source list for `CCOC(=O)c1c(C)cc2nc(COC(=O)NC(C)C)n(-c3ccccc3Br)c(=O)c2c1C` [Compound 19]?
Hypotensive Effect Δ(mmHg) ([1]; dose 1.0 μg/kg): 20 mmHg; Hypotensive Effect Δ(mmHg) ([1]; dose 3.0 μg/kg): 35 mmHg

With `CCNC(=O)OCc1nc2cc(C)c(C(=O)OCC)c(C)c2c(=O)n1-c1ccccc1Cl` [Compound 9] as the compound, how does the ED (30 mmHg) [3] read?
Its ED (30 mmHg) is 0.35 mg/kg.

And the “Hypotensive Effect Δ(mmHg)” value ([1]; dose 1.0 μg/kg)?
The value was 22 mmHg.

And the “Hypotensive Effect Δ(mmHg)” value ([1]; dose 3.0 μg/kg)?
The value was 42 mmHg.

Which “Hypotensive Effect Δ(mmHg)” value ([1]; dose 1.0 μg/kg) does the source give for `CCNC(=O)OCc1nc2cc(C)c(C(=O)OCC)c(C)c2c(=O)n1-c1ccccc1[N+](=O)[O-]` [Compound 28] here?
Its value is 0 mmHg.

What about the “Hypotensive Effect Δ(mmHg)” value ([1]; dose 3.0 μg/kg) of the same compound?
Its value is 6 mmHg.

And the “Hypotensive Effect Δ(mmHg)” value ([1]; dose 10 μg/kg)?
The value was 9 mmHg.

And the “Hypotensive Effect Δ(mmHg)” value ([1]; dose 30 μg/kg)?
Its value is 25 mmHg.

For `COc1ccc(Cc2nccc3cc(OC)c(OC)cc23)cc1OC` [papaverine, reference compound], which “hypotensive effect … (in words)” value [1] is on record?
Its value is “did not exhibit a hypotensive effect”.

What does the source list for `CCOC(=O)c1c(C)cc2nc(COC(=O)NC(C)C)n(-c3ccccc3C(F)(F)F)c(=O)c2c1C` [Compound 27]?
Hypotensive Effect Δ(mmHg) ([1]; dose 1.0 μg/kg): 0 mmHg; Hypotensive Effect Δ(mmHg) ([1]; dose 3.0 μg/kg): 0 mmHg; Hypotensive Effect Δ(mmHg) ([1]; dose 10 μg/kg): 8 mmHg; Hypotensive Effect Δ(mmHg) ([1]; dose 30 μg/kg): 18 mmHg; Hypotensive Effect Δ(mmHg) ([1]; dose 100 μg/kg): 25 mmHg

Which “hypotensive effect … (in words)” value [1] does the source give for `CCOC(=O)c1c(C)cc2c(c1C)c(=O)n(-c1ccccc1C(F)(F)F)c(=O)n2CCN(CC)CC` [6-ethoxycarbonyl-3-[2-(trifluoromethyl)phenyl]-5,7-dimethyl-1-[2-(N,N-diethylamino)ethyl]-2,4(1H,3H)-quinazolinedione, reference compound] here?
The value was “did not exhibit a hypotensive effect”.

With `CCOC(=O)c1c(C)cc2nc(C)n(-c3ccccc3Cl)c(=O)c2c1C` [3-(2-chlorophenyl)-6-ethoxycarbonyl-2,5,7-trimethyl-4(3H)-quinazolinone, reference compound] as the compound, how does the “hypotensive effect … (in words)” value [1] read?
The value was “did not exhibit a hypotensive effect”.

Which “Hypotensive Effect Δ(mmHg)” value ([1]; dose 1.0 μg/kg) does the source give for `CCOC(=O)c1c(C)cc2nc(COC(=O)N(C)C)n(-c3ccccc3Cl)c(=O)c2c1C.Cl` [Compound 3, 3-(2-chlorophenyl)-2-(N,N-dimethylcarbamoyloxymethyl)-6-ethoxy-carbonyl-5,7-dimethyl-4(3H)-quinazolinone hydrochloride] here?
The value was 0 mmHg.

And the “Hypotensive Effect Δ(mmHg)” value ([1]; dose 3.0 μg/kg)?
The value was 0 mmHg.

And the “Hypotensive Effect Δ(mmHg)” value ([1]; dose 10 μg/kg)?
The value was 1 mmHg.

And the “Hypotensive Effect Δ(mmHg)” value ([1]; dose 30 μg/kg)?
The value was 6 mmHg.

What about the “Hypotensive Effect Δ(mmHg)” value ([1]; dose 100 μg/kg) of the same compound?
The value was 20 mmHg.

What does the source list for `CCOC(=O)c1c(C)cc2nc(COC(=O)NC(C)C)n(-c3ccccc3Cl)c(=O)c2c1C` [Compound 2, 3-(2-chlorophenyl)-6-ethoxycarbonyl-5,7-dimethyl-2-(N-isopropylcarbamoyloxymethyl)-4(3H)-quinazolinone]?
ED (30 mmHg) [3]: 0.42 mg/kg; Hypotensive Effect Δ(mmHg) ([1]; dose 1.0 μg/kg): 24 mmHg; Hypotensive Effect Δ(mmHg) ([1]; dose 3.0 μg/kg): 48 mmHg

With `CCCCNC(=O)OCc1nc2cc(C)c(C(=O)OCC)c(C)c2c(=O)n1-c1ccccc1Cl` [Compound 12] as the compound, how does the “Hypotensive Effect Δ(mmHg)” value ([1]; dose 1.0 μg/kg) read?
Its value is 10 mmHg.

And the “Hypotensive Effect Δ(mmHg)” value ([1]; dose 3.0 μg/kg)?
Its value is 25 mmHg.

With `CCOC(=O)c1c(C)cc2nc(C)n(-c3ccccc3C(F)(F)F)c(=O)c2c1C` [6-ethoxycarbonyl-3-[2-(trifluoromethyl)phenyl]-2,5,7-trimethyl-4(3H)-quinazoline, reference compound] as the compound, how does the “hypotensive effect … (in words)” value [1] read?
The value was “did not exhibit a hypotensive effect”.

What does the source list for `CCOC(=O)c1c(C)cc2nc(COC(=O)NC(C)C)n(-c3ccccc3C)c(=O)c2c1C` [Compound 23]?
Hypotensive Effect Δ(mmHg) ([1]; dose 1.0 μg/kg): 8 mmHg; Hypotensive Effect Δ(mmHg) ([1]; dose 3.0 μg/kg): 25 mmHg
